Laboratory results reported in article PMC7570665 (2020).

Columns and labels:
[1] = tested on: T10-7.t5 (XNA, aptamer, all-TNA (alpha-L-threose nucleic acid, 3'-2'); 7-deaza-7-phenyl-guanine in place of every guanine) CTTTTAAGAACCGGACGAACTAGAATATTATATTTT; test: competitive equilibrium filtration; conditions: 5 mM MgCl2, 300 mM NaCl; 20 mM Tris-HCl pH 7.6; displaces γ-32P-ATP; 4 °C in methods, 24 °C in legend; highest concentration not stated
[2] = tested on: T10-7.t5 (XNA, aptamer, all-TNA (alpha-L-threose nucleic acid, 3'-2'); 7-deaza-7-phenyl-guanine in place of every guanine) CTTTTAAGAACCGGACGAACTAGAATATTATATTTT; test: equilibrium filtration, γ-32P-ATP, Hill fit; conditions: 5 mM MgCl2, 300 mM NaCl; 20 mM Tris-HCl pH 7.6; 4 °C in methods, 24 °C in legend; apparent

| Kd [1] [µM] | KD [2] [µM] | SMILES |
| --- | --- | --- |
| > 2000 |  | Nc1ccn([C@@H]2O[C@H](COP(=O)(O)OP(=O)(O)OP(=O)(O)O)[C@@H](O)[C@H]2O)c(=O)n1 |
| > 2000 |  | Nc1nc2c(ncn2[C@@H]2O[C@H](COP(=O)(O)OP(=O)(O)OP(=O)(O)O)[C@@H](O)[C@H]2O)c(=O)[nH]1 |
|  | 22 ± 5 | Nc1ncnc2c1ncn2[C@@H]1O[C@H](COP(=O)(O)OP(=O)(O)OP(=O)(O)O)[C@@H](O)[C@H]1O |
| > 2000 |  | O=c1ccn([C@@H]2O[C@H](COP(=O)(O)OP(=O)(O)OP(=O)(O)O)[C@@H](O)[C@H]2O)c(=O)[nH]1 |
